US20100279976A1, “USE OF ARTEMISININ AND ITS DERIVATIVES IN CANCER THERAPY” (SHANGHAI INSTITUTES FOR BIOLOGICAL SCIENCES, CAS, priority 2009, published 2010)
Read-outs that look alike come from different tables or passages of the source.

Experiments:
HepG2 cells = test: Western blot of apoptosis-related proteins; type: cell-based, human; conditions: HepG2, 48 h
Protocol: Whole-cell lysates may be generated with radioimmunoprecipitation assay lysis buffer, and after centrifugation, the supernatant fraction may be collected for immunoblotting. Proteins may be resolved by SDS-PAGE and transferred onto a nitrocellulose membrane. After blocking with 5% nonfat milk in blocking buffer [20 mmol/L TBS (pH 7.5) containing 0.1% Tween 20], the membrane may be incubated with the desired primary antibody for 2 h at room temperature and then incubated with appropriate peroxidase conjugated secondary antibody. The immunoreactive bands may be visualized using the ECL Plus Western Blotting Detection System. The level of ([…] for each sample may be used as loading control. Tumor tissues may be collected at the termination of the experiment and homogenized using a homogenizer in ice-cold lysis buffer. Supernatants may be collected and used to examine the expression of different proteins by Western blot analysis.

A2780 xenograft tumors = type: in vivo; conditions: for tumor growth inhibition: A2780 xenograft, 5 days/week
Protocol: Four to six week old female athymic nude mice (BALB/c, nu/nu) may be purchased from Shanghai Experimental Animal Center (Shanghai, China). Animal studies are approved by the Institute for Nutritional Sciences. The tumor xenograft model may be established as follows. […] Aliquots of cells (˜5×10^6 cells/0.2 ml) may be injected subcutaneously into the left inguinal area of the mice. The tumor growth and body weight of the mice may be monitored every other day. Tumor mass may be determined. Mice bearing palpable tumors (˜70 mg) may be randomly divided into treatment and control groups n=5 mice/group). CBP may be dissolved in saline, and DHA may be dissolved in cremophor EL:ethanol:saline (5:5:90, v/v/v). DHA may be administered via i.p. injection at doses of 10 and 25 mg/kg/5 days/week for 3 weeks) alone or combined with CBP (at a single dose of 120 mg/kg, once on day 0). The control group receives saline only. Mice may be killed on day 18. Tumors may be carefully excised, trimmed of extraneous fat or connective tissue, and homogenized in RIPA buffer (100 mg tumor tissue/1 ml RIPA) and prepared for immunoblotting analysis as described above.

Row | Compound | MDM2 level (HepG2 cells) | cleavage of caspase-3 and PARP (HepG2 cells) | level of Bax (HepG2 cells) | level of Bcl-2 protein (HepG2 cells) | p53 level (HepG2 cells) | tumor growth inhibition (A2780 xenograft tumors; DHA 10 mg/kg i.p., vs saline control) | tumor growth inhibition (A2780 xenograft tumors; DHA 25 mg/kg i.p.) | host toxicity based on observation of body weight (A2780 xenograft tumors; mice bearing A2780 or OVCAR-3 xenografts)
1 | C[C@@H]1CC[C@H]2[C@@H](C)C(=O)O[C@@H]3O[C@@]4(C)CC[C@@H]1[C@]32OO4 [ART, artemisinin] | decrease | dose-dependent increase | concomitant increase | dose-dependent reduction | dose-dependent increase | – | – | –
2 | C[C@H]1[C@@H](O)O[C@@H]2O[C@@]3(C)CC[C@H]4[C@H](C)CC[C@@H]1[C@@]24OO3 [DHA, dihydroartemisinin] | – | – | – | – | – | 24% | 41% | No other host toxicities are observed
